Source: US20080161232A1, “C5a Receptor Antagonist” (JERINI AG, priority 2005, published 2008)
Positions of bridges follow the written chain, without caps; N, C: chain ends. Non-standard residues stand in square brackets, D forms with d. Residues, ends and D or L forms follow the SMILES beside them. Phe(3-Cl) = N[C@@H](Cc1cccc(Cl)c1)C(=O)O; Phe(2-Cl) = N[C@@H](Cc1ccccc1Cl)C(=O)O; Phe(4-F) = N[C@@H](Cc1ccc(F)cc1)C(=O)O; Hyp = O=C(O)[C@@H]1C[C@@H](O)CN1; d(hLeu) = CC(C)CC[C@@H](N)C(=O)O; dCha = N[C@H](CC1CCCCC1)C(=O)O; hLeu = CC(C)CC[C@H](N)C(=O)O; NMeS = CN[C@@H](CO)C(=O)O; Nle = CCCC[C@H](N)C(=O)O; Orn = NCCC[C@H](N)C(=O)O; Nva = CCC[C@H](N)C(=O)O

Biological target: T1, human C5aR(CD88) (Homo sapiens, UniProt P21730)
T1 construct: expressed in transfected cells; host or cells: rat basophilic leukemia cells (RBL)
T1 sequence (P21730 1-350): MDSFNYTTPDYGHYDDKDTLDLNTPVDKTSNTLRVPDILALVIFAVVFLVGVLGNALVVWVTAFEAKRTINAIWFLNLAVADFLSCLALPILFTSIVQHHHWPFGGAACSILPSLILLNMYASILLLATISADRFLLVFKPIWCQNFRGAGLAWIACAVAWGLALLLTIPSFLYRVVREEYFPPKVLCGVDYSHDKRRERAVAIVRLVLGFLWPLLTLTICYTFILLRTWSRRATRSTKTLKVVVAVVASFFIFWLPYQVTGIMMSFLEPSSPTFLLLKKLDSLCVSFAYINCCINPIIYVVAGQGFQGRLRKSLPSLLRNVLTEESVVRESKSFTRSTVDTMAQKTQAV
Assay: Determination of the IC50 value in an enzyme release assay (functional assay, antagonistic activity)
Type: cell-based
Details: antagonistic activity; IC50 group in enzyme release assay, RBL cells expressing human C5aR(CD88); read-out: activity (group)

Row | SMILES | IC50 [nM]
1 | CC(C)CC[C@@H]1NC(=O)[C@H](Cc2ccc(F)cc2)NC(=O)[C@@H](CCC(C)C)NC(=O)[C@@H]2C[C@@H](O)CN2C(=O)[C@@H](NC(=O)[C@@H](N)Cc2ccccc2)CCCNC1=O [Compound 363, H-Phe-[Orn-Hyp-hle-Pff-Hle]] (H-F[Orn][Hyp][d(hLeu)][Phe(4-F)][hLeu]; lactam 2-C) | 50 to 200
2 | CC(C)CC[C@H]1NC(=O)[C@@H]2C[C@@H](O)CN2C(=O)[C@@H](NC(=O)[C@@H](N)Cc2ccccc2)CCCNC(=O)[C@H](CC(C)C)NC(=O)[C@H](Cc2ccc(F)cc2)NC1=O [Compound 364, H-Phe-[Orn-Hyp-hle-Pff-Leu]] (H-F[Orn][Hyp][d(hLeu)][Phe(4-F)]L; lactam 2-C) | 50 to 200
3 | CCCC[C@@H]1NC(=O)[C@H](Cc2ccc(F)cc2)NC(=O)[C@@H](CCC(C)C)NC(=O)[C@@H]2C[C@@H](O)CN2C(=O)[C@@H](NC(=O)[C@@H](N)Cc2ccccc2)CCCNC1=O [Compound 365, H-Phe-[Orn-Hyp-hle-Pff-Nle]] (H-F[Orn][Hyp][d(hLeu)][Phe(4-F)][Nle]; lactam 2-C) | 50 to 200
4 | CC(C)CC[C@H]1NC(=O)[C@@H]2C[C@@H](O)CN2C(=O)[C@@H](NC(=O)[C@@H](N)Cc2ccccc2)CCCNC(=O)[C@H](Cc2ccccc2)NC(=O)[C@H](Cc2ccc(F)cc2)NC1=O [Compound 366, H-Phe-[Orn-Hyp-hle-Pff-Phe]] (H-F[Orn][Hyp][d(hLeu)][Phe(4-F)]F; lactam 2-C) | 50 to 200
5 | CC(C)CC[C@@H]1NC(=O)[C@H](Cc2c[nH]c3ccccc23)NC(=O)[C@@H](CCC(C)C)NC(=O)[C@@H]2C[C@@H](O)CN2C(=O)[C@@H](NC(=O)[C@@H](N)Cc2ccccc2)CCCNC1=O [Compound 367, H-Phe-[Orn-Hyp-hle-Trp-Hle]] (H-F[Orn][Hyp][d(hLeu)]W[hLeu]; lactam 2-C) | 50 to 200
6 | CC(C)CC[C@H]1NC(=O)[C@@H]2C[C@@H](O)CN2C(=O)[C@@H](NC(=O)[C@@H](N)Cc2ccccc2)CCCNC(=O)[C@H](CC(C)C)NC(=O)[C@H](Cc2c[nH]c3ccccc23)NC1=O [Compound 368, H-Phe-[Orn-Hyp-hle-Trp-Leu]] (H-F[Orn][Hyp][d(hLeu)]WL; lactam 2-C) | 20 to 50
7 | CCCC[C@@H]1NC(=O)[C@H](Cc2c[nH]c3ccccc23)NC(=O)[C@@H](CCC(C)C)NC(=O)[C@@H]2C[C@@H](O)CN2C(=O)[C@@H](NC(=O)[C@@H](N)Cc2ccccc2)CCCNC1=O [Compound 369, H-Phe-[Orn-Hyp-hle-Trp-Nle]] (H-F[Orn][Hyp][d(hLeu)]W[Nle]; lactam 2-C) | 20 to 50
8 | CCC[C@@H]1NC(=O)[C@H](Cc2c[nH]c3ccccc23)NC(=O)[C@@H](CCC(C)C)NC(=O)[C@@H]2C[C@@H](O)CN2C(=O)[C@@H](NC(=O)[C@@H](N)Cc2ccccc2)CCCNC1=O [Compound 370, H-Phe-[Orn-Hyp-hle-Trp-Nva]] (H-F[Orn][Hyp][d(hLeu)]W[Nva]; lactam 2-C) | 50 to 200
9 | CC(C)CC[C@H]1NC(=O)[C@@H]2C[C@@H](O)CN2C(=O)[C@@H](NC(=O)[C@@H](N)Cc2ccccc2)CCCNC(=O)[C@H](Cc2ccccc2)NC(=O)[C@H](Cc2c[nH]c3ccccc23)NC1=O [Compound 371, H-Phe-[Orn-Hyp-hle-Trp-Phe]] (H-F[Orn][Hyp][d(hLeu)]WF; lactam 2-C) | 20 to 50
10 | CCCC[C@@H]1NC(=O)[C@H](Cc2c[nH]c3ccccc23)NC(=O)[C@@H](CC2CCCCC2)NC(=O)[C@H](CO)N(C)C(=O)[C@@H](NC(=O)[C@@H](N)Cc2ccccc2)CCCNC1=O [Compound 372, H-Phe-[Orn-NMS-cha-Trp-Nle]] (H-F[Orn][NMeS][dCha]W[Nle]; lactam 2-C) | 50 to 200
11 | CC(C)CC[C@H]1NC(=O)[C@H](CO)N(C)C(=O)[C@@H](NC(=O)[C@@H](N)Cc2ccccc2)CCCNC(=O)[C@H](Cc2ccccc2)NC(=O)[C@H](Cc2ccc(F)cc2)NC1=O [Compound 373, H-Phe-[Orn-NMS-hle-Pff-Phe]] (H-F[Orn][NMeS][d(hLeu)][Phe(4-F)]F; lactam 2-C) | 50 to 200
12 | CCCC[C@@H]1NC(=O)[C@H](Cc2ccc(F)cc2)NC(=O)[C@@H](CC2CCCCC2)NC(=O)[C@@H]2CCCN2C(=O)[C@@H](NC(=O)[C@@H](N)Cc2ccccc2)CCCNC1=O [Compound 374, H-Phe-[Orn-Pro-cha-Pff-Nle]] (H-F[Orn]P[dCha][Phe(4-F)][Nle]; lactam 2-C) | 50 to 200
13 | N[C@@H](Cc1ccccc1)C(=O)N[C@H]1CCCNC(=O)[C@H](Cc2ccccc2)NC(=O)[C@H](Cc2ccc(F)cc2)NC(=O)[C@@H](CC2CCCCC2)NC(=O)[C@@H]2CCCN2C1=O [Compound 375, H-Phe-[Orn-Pro-cha-Pff-Phe]] (H-F[Orn]P[dCha][Phe(4-F)]F; lactam 2-C) | 50 to 200
14 | CCCC[C@@H]1NC(=O)[C@H](Cc2c[nH]c3ccccc23)NC(=O)[C@@H](CC2CCCCC2)NC(=O)[C@@H]2CCCN2C(=O)[C@@H](NC(=O)[C@@H](N)Cc2ccccc2)CCCNC1=O [Compound 376, H-Phe-[Orn-Pro-cha-Trp-Nle]] (H-F[Orn]P[dCha]W[Nle]; lactam 2-C) | 50 to 200
15 | CC(C)CC[C@H]1NC(=O)[C@@H]2CCCN2C(=O)[C@@H](NC(=O)[C@@H](N)Cc2ccccc2)CCCNC(=O)[C@H](Cc2ccccc2)NC(=O)[C@H](Cc2cccc(Cl)c2)NC1=O [Compound 377, H-Phe-[Orn-Pro-hle-Mcf-Phe]] (H-F[Orn]P[d(hLeu)][Phe(3-Cl)]F; lactam 2-C) | 20 to 50
16 | CC(C)CC[C@H]1NC(=O)[C@@H]2CCCN2C(=O)[C@@H](NC(=O)[C@@H](N)Cc2ccccc2)CCCNC(=O)[C@H](Cc2ccccc2)NC(=O)[C@H](Cc2ccccc2Cl)NC1=O [Compound 378, H-Phe-[Orn-Pro-hle-Ocf-Phe]] (H-F[Orn]P[d(hLeu)][Phe(2-Cl)]F; lactam 2-C) | 50 to 200
17 | CCCC[C@@H]1NC(=O)[C@H](Cc2ccc(F)cc2)NC(=O)[C@@H](CCC(C)C)NC(=O)[C@@H]2CCCN2C(=O)[C@@H](NC(=O)[C@@H](N)Cc2ccccc2)CCCNC1=O [Compound 379, H-Phe-[Orn-Pro-hle-Pff-Nle]] (H-F[Orn]P[d(hLeu)][Phe(4-F)][Nle]; lactam 2-C) | 50 to 200
18 | CC(C)CC[C@H]1NC(=O)[C@@H]2CCCN2C(=O)[C@@H](NC(=O)[C@@H](N)Cc2ccccc2)CCCNC(=O)[C@H](Cc2ccccc2)NC(=O)[C@H](Cc2ccc(F)cc2)NC1=O [Compound 380, H-Phe-[Orn-Pro-hle-Pff-Phe]] (H-F[Orn]P[d(hLeu)][Phe(4-F)]F; lactam 2-C) | 20 to 50
19 | CCCC[C@@H]1NC(=O)[C@H](Cc2c[nH]c3ccccc23)NC(=O)[C@@H](CCC(C)C)NC(=O)[C@@H]2CCCN2C(=O)[C@@H](NC(=O)[C@@H](N)Cc2ccccc2)CCCNC1=O [Compound 381, H-Phe-[Orn-Pro-hle-Trp-Nle]] (H-F[Orn]P[d(hLeu)]W[Nle]; lactam 2-C) | 20 to 50
20 | CCCC[C@@H]1NC(=O)[C@H](Cc2c[nH]c3ccccc23)NC(=O)[C@@H](CC2CCCCC2)NC(=O)[C@H](CO)NC(=O)[C@@H](NC(=O)[C@@H](N)Cc2ccccc2)CCCNC1=O [Compound 382, H-Phe-[Orn-Ser-cha-Trp-Nle]] (H-F[Orn]S[dCha]W[Nle]; lactam 2-C) | 20 to 50
21 | N[C@@H](Cc1ccccc1)C(=O)N[C@H]1CCCNC(=O)[C@H](Cc2ccccc2)NC(=O)[C@H](Cc2c[nH]c3ccccc23)NC(=O)[C@@H](CC2CCCCC2)NC(=O)[C@H](CO)NC1=O [Compound 383, H-Phe-[Orn-Ser-cha-Trp-Phe]] (H-F[Orn]S[dCha]WF; lactam 2-C) | 20 to 50
